We go through 30 molecules from US10106556B2, “Heterocyclic compound” (TAKEDA PHARMACEUTICAL COMPANY LIMITED, priority 2015, dated 2018).

The structures appear in SMILES notation.

What is called inhibition is the relative decrease from the control value, in per cent.

The target in the test is T1, His-hMAGL (recombinant polyhistidine tagged human MAGL protein) (Homo sapiens, UniProt Q99685).
T1 construct: made in house; host or cells: E. coli BL21(DE3)
T1 sequence (Q99685 1-303): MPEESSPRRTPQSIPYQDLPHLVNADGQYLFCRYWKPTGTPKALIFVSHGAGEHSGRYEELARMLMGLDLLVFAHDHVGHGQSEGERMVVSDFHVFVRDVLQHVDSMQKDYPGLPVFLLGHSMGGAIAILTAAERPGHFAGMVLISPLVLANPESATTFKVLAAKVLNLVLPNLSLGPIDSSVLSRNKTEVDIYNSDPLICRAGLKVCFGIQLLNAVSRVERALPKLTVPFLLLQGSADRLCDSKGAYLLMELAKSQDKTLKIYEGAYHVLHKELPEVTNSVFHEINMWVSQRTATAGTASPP
The test is described as follows: Measurement of MAGL inhibitory activity (arachidonic acid production from 2-arachidonylglycerol, RapidFire-mass spectrometry). Conditions: MAGL inhibitory rate at 10 μM test compound; 60 min preincubation with His-hMAGL, 2-arachidonylglycerol substrate, 10 min reaction at room temperature. Format: biochemical. In a few lines: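 Recombinant His-tagged human MAGL converted 2-arachidonylglycerol to arachidonic acid. Reactions received acetonitrile with 3 μM arachidonic acid-d8 as internal standard, and product was quantified by RapidFire SPE (C4) with negative-mode SRM mass spectrometry. Percent inhibition was calculated against compound-free and enzyme-free controls.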
As to `Cc1nc(C)c(-c2ccc(OCC3CN(C(=O)c4cc5c(cc4F)OCC(=O)N5)C3)c(F)c2)s1` [Example 260, 6-((3-((4-(2,4-dimethyl-1,3-thiazol-5-yl)-2-fluorophenoxy)methyl)azetidin-1-yl)carbonyl)-7-fluoro-2H-1,4-benzoxazin-3(4H)-one], the inhibition at 10 µM was 100%. Next, `O=C1COc2cc(F)c(C(=O)N3CC(COc4ccc(-c5cccnc5)cc4F)C3)cc2N1` [Example 261, 7-fluoro-6-((3-((2-fluoro-4-(pyridin-3-yl)phenoxy)methyl)azetidin-1-yl)carbonyl)-2H-1,4-benzoxazin-3(4H)-one]: 98%.

With `Cc1ncccc1-c1ccc(OCC2CN(C(=O)c3cc4c(cc3F)OCC(=O)N4)C2)c(F)c1` [Example 262, 7-fluoro-6-((3-((2-fluoro-4-(2-methylpyridin-3-yl)phenoxy)methyl)azetidin-1-yl)carbonyl)-2H-1,4-benzoxazin-3(4H)-one], the inhibition at 10 µM turned out to be 98%.

On to `Cc1ccc(-c2ccc(OCC3CN(C(=O)c4cc5c(cc4F)OCC(=O)N5)C3)c(F)c2)cn1` [Example 263, 7-fluoro-6-((3-((2-fluoro-4-(6-methylpyridin-3-yl)phenoxy)methyl)azetidin-1-yl)carbonyl)-2H-1,4-benzoxazin-3(4H)-one], for which the inhibition at 10 µM turned out to be 97%. In the case of `Cc1cc(-c2ccc(OCC3CN(C(=O)c4cc5c(cc4F)OCC(=O)N5)C3)c(F)c2)ccn1` [Example 264, 7-fluoro-6-((3-((2-fluoro-4-(2-methylpyridin-4-yl)phenoxy)methyl)azetidin-1-yl)carbonyl)-2H-1,4-benzoxazin-3(4H)-one], the inhibition at 10 µM came to 101%. Next, `Cc1nn(C)cc1-c1cc(Cl)ccc1OCC1CN(C(=O)c2cc3c(cc2F)OCC(=O)N3)C1` [Example 265, 6-((3-((4-chloro-2-(1,3-dimethyl-1H-pyrazol-4-yl)phenoxy)methyl)azetidin-1-yl)carbonyl)-7-fluoro-2H-1,4-benzoxazin-3(4H)-one]: 99%; `Cc1c(-c2cc(Cl)ccc2OCC2CN(C(=O)c3cc4c(cc3F)OCC(=O)N4)C2)cnn1C` [Example 266, 6-((3-((4-chloro-2-(1,5-dimethyl-1H-pyrazol-4-yl)phenoxy)methyl)azetidin-1-yl)carbonyl)-7-fluoro-2H-1,4-benzoxazin-3(4H)-one]: 99%. Next, `Cc1nn(C)c(C)c1-c1cc(Cl)ccc1OCC1CN(C(=O)c2cc3c(cc2F)OCC(=O)N3)C1` [Example 267, 6-((3-((4-chloro-2-(1,3,5-trimethyl-1H-pyrazol-4-yl)phenoxy)methyl)azetidin-1-yl)carbonyl)-7-fluoro-2H-1,4-benzoxazin-3(4H)-one]: 101%. As to `Cc1nc(C)c(-c2cc(Cl)ccc2OCC2CN(C(=O)c3cc4c(cc3F)OCC(=O)N4)C2)s1` [Example 268, 6-((3-((4-chloro-2-(2,4-dimethyl-1,3-thiazol-5-yl)phenoxy)methyl)azetidin-1-yl)carbonyl)-7-fluoro-2H-1,4-benzoxazin-3(4H)-one], the inhibition at 10 µM worked out at 101%.

Consider `Cc1ccc(OCC2CN(C(=O)c3cc4c(cc3F)OCC(=O)N4)C2)cc1F` [Example 269, 7-fluoro-6-((3-((3-fluoro-4-methylphenoxy)methyl)azetidin-1-yl)carbonyl)-2H-1,4-benzoxazin-3(4H)-one], for which the inhibition at 10 µM is 101%. Under `O=C1COc2cc(F)c(C(=O)N3CC(COc4ccc(OC(F)F)cc4)C3)cc2N1` [Example 270, 6-((3-((4-(difluoromethoxy)phenoxy)methyl)azetidin-1-yl)carbonyl)-7-fluoro-2H-1,4-benzoxazin-3(4H)-one] stands 101%; under `O=C1COc2cc(F)c(C(=O)N3CC(COCc4ccccc4)C3)cc2N1` [Example 271, 6-((3-((benzyloxy)methyl)azetidin-1-yl)carbonyl)-7-fluoro-2H-1,4-benzoxazin-3(4H)-one], 95%. Next, `O=C1COc2cc(F)c(C(=O)N3CC(COCc4ccc5scnc5c4)C3)cc2N1` [Example 272, 6-((3-((1,3-benzothiazol-5-ylmethoxy)methyl)azetidin-1-yl)carbonyl)-7-fluoro-2H-1,4-benzoxazin-3(4H)-one]: 100%; `O=C1COc2cc(F)c(C(=O)N3CC(COc4ccc5c(c4)OCC5)C3)cc2N1` [Example 273, 6-((3-((2,3-dihydro-1-benzofuran-6-yloxy)methyl)azetidin-1-yl)carbonyl)-7-fluoro-2H-1,4-benzoxazin-3(4H)-one]: 101%; `O=C1COc2cc(F)c(C(=O)N3CCC(COc4cccn5nccc45)CC3)cc2N1` [Example 274, 7-fluoro-6-((4-((pyrazolo[1,5-a]pyridin-4-yloxy)methyl)piperidin-1-yl)carbonyl)-2H-1,4-benzoxazin-3(4H)-one]: 102%. `O=C1COc2cc(F)c(C(=O)N3CCC(COc4cccc5ccnn45)CC3)cc2N1` [Example 275, 7-fluoro-6-((4-((pyrazolo[1,5-a]pyridin-7-yloxy)methyl)piperidin-1-yl)carbonyl)-2H-1,4-benzoxazin-3(4H)-one]: the inhibition at 10 µM amounted to 99%. Regarding `Cc1ccnc(-c2ccc(OCC3CN(C(=O)c4cc5c(cc4F)OCC(=O)N5)C3)c(F)c2)c1` [Example 276], the inhibition at 10 µM amounted to 97%.

Take `O=C1COc2cc(F)c(C(=O)N3CC(COc4ccc(C(F)(F)F)c(F)c4)C3)cc2N1` [Example 277, 7-fluoro-6-((3-((3-fluoro-4-(trifluoromethyl)phenoxy)methyl)azetidin-1-yl)carbonyl)-2H-1,4-benzoxazin-3(4H)-one]: the inhibition at 10 µM turned out to be 104%. For `O=C1COc2cc(F)c(C(=O)N3CC(COc4ccc(F)c(C(F)(F)F)c4)C3)cc2N1` [Example 278, 7-fluoro-6-((3-((4-fluoro-3-(trifluoromethyl)phenoxy)methyl)azetidin-1-yl)carbonyl)-2H-1,4-benzoxazin-3(4H)-one], the inhibition at 10 µM is 103%. Under `O=C1COc2cc(F)c(C(=O)N3CC(COc4cnc5c(c4)CCCO5)C3)cc2N1` [Example 279, 6-((3-((3,4-dihydro-2H-pyrano[2,3-b]pyridin-6-yloxy)methyl)azetidin-1-yl)carbonyl)-7-fluoro-2H-1,4-benzoxazin-3(4H)-one] stands 101%; under `O=C1COc2cc(F)c(C(=O)N3CC(COC4CCCCC4)C3)cc2N1` [Example 280, 6-((3-((cyclohexyloxy)methyl)azetidin-1-yl)carbonyl)-7-fluoro-2H-1,4-benzoxazin-3(4H)-one], 102%; under `O=C1COc2cc(F)c(C(=O)N3CC(COc4ccc(F)cc4Cl)C3)c(F)c2N1` [Example 281, 6-((3-((2-chloro-4-fluorophenoxy)methyl)azetidin-1-yl)carbonyl)-5,7-difluoro-2H-1,4-benzoxazin-3(4H)-one], 100%. Under `O=C1COc2cc(F)c(C(=O)N3CC(COC4CCC(F)(F)CC4)C3)cc2N1` [Example 282, 6-((3-(((4,4-difluorocyclohexyl)oxy)methyl)azetidin-1-yl)carbonyl)-7-fluoro-2H-1,4-benzoxazin-3(4H)-one] stands 99%. Next, `CC1(COc2ccc(F)cc2Cl)CN(C(=O)c2cc3c(cc2F)OCC(=O)N3)C1` [Example 283, 6-((3-((2-chloro-4-fluorophenoxy)methyl)-3-methylazetidin-1-yl)carbonyl)-7-fluoro-2H-1,4-benzoxazin-3(4H)-one]: 101%; `O=C1COc2cc(F)c(C(=O)N3CCC(COc4ccc5c(c4)CCCC5)CC3)cc2N1` [Example 284, 7-fluoro-6-((4-((5,6,7,8-tetrahydronaphthalen-2-yloxy)methyl)piperidin-1-yl)carbonyl)-2H-1,4-benzoxazin-3(4H)-one]: 96%; `O=C1COc2cc(F)c(C(=O)N3CCC(COc4ccccc4)CC3)cc2N1` [Example 285, 7-fluoro-6-((4-(phenoxymethyl)piperidin-1-yl)carbonyl)-2H-1,4-benzoxazin-3(4H)-one]: 98%. Turning to `O=C1COc2cc(F)c(C(=O)N3CC(COc4ccc5c(c4Br)CCCC5)C3)cc2N1` [Example 286, 6-((3-(((1-bromo,-5,6,7,8-tetrahydronaphthalen-2-yl)oxy)methyl)azetidin-1-yl)carbonyl)-7-fluoro-2H-1,4-benzoxazin-3(4H)-one], the inhibition at 10 µM is 98%. Take `Cc1cc(OCC2CN(C(=O)c3cc4c(cc3F)OCC(=O)N4)C2)ccc1F` [Example 287, 7-fluoro-6-((3-((4-fluoro-3-methylphenoxy)methyl)azetidin-1-yl)carbonyl)-2H-1,4-benzoxazin-3(4H)-one]: the inhibition at 10 µM was found to be 100%.

With `O=C1COc2cc(F)c(C(=O)N3CC(COc4ccc(C(F)F)cc4F)C3)cc2N1` [Example 288, 6-((3-((4-(difluoromethyl)-2-fluorophenoxy)methyl)azetidin-1-yl)carbonyl)-7-fluoro-2H-1,4-benzoxazin-3(4H)-one], the inhibition at 10 µM turned out to be 101%. For the molecule `O=C1COc2cc(F)c(C(=O)N3CC(COc4ccc(-c5cccc(F)n5)cc4F)C3)cc2N1` [Example 289, 7-fluoro-6-((3-((2-fluoro-4-(6-fluoropyridin-2-yl)phenoxy)methyl)azetidin-1-yl)carbonyl)-2H-1,4-benzoxazin-3(4H)-one], the inhibition at 10 µM came to 88%.
